Measurements as given in patent US20220249399A1, “COMPOSITION COMPRISING AN ANTI-OXIDANT TO PRESERVE CORNEAL TISSUE” (University of lowa Research Foundation, priority 2019, published 2022).
“Also recorded” adds a separate entry of the source. Marks after values point to notes of the source that are not given here.

Tested on: human donor corneal endothelial cells
Assay: Mitochondrial respiration assay (Seahorse XFe24 extracellular flux analyzer) of donor corneal endothelium after storage in supplemented Optisol GS
Assay type: cell-based
Conditions: for ATP Production, Mean (SD) / Maximal Respiration, Mean (SD) / Non-mitochondrial Respiration, Median [IQR] / Proton Leak, Mean (SD) / Spare Respiratory Capacity, Mean (SD) / Basal, Mean (SD): OCR per cell (pmole/min/cell)
Method: Human corneal tissue pairs were obtained by Iowa Lions Eye Bank (ILEB) from nondiabetic donors 60-75 years old and stored in Optisol GS (Bausch+Lomb, Irvine, Calif.) at 4° C. following procurement in accordance with Eye Bank Association of America and ILEB policies and procedures. For 5 days prior to testing, but within 9 days of procurement, one stored tissue from a corneal pair was treated with 10 μM CoQ10, while the mate tissue was treated with diluent only as a control. Descemet membrane and endothelial cell punches were collected and mounted onto the bottom of a Seahorse assay plate (cells facing upward). Mitochondrial respiration was assayed by measuring oxygen consumption using the Seahorse XFe24 Extracellular Flux Analyzer (Agilent Technologies, Santa Clara, Calif.) over 120 minutes (9-minute intervals). Punches were labeled with a nuclear counterstain (DAPI) and remaining tissues were mounted onto slides and labeled with 488A-Annexin V, Ethidium Homodimer III, and Hoechst 33342 (Apoptotic, Necrotic, and Healthy Cells Quantification Kit; Biotium, Fremont, Calif.) to assay cell health. Nuclei were counted in each punch to normalize respirometry data. Immunohistochemistry densitometry was measured using ImageJ software.
Human donor whole globe eye pairs were obtained by Iowa Lions Eye Bank (ILEB) and the anterior portion of the eyes were removed. For 14 days, one cornea was stored from a corneal pair treated with 1 mM ascorbate-2-phosphate, while the mate tissue was treated with diluent only as a control. Descemet membrane and endothelial cell punches were collected and mounted onto the bottom of a Seahorse assay plate (cells facing upward). Mitochondrial respiration was assayed by measuring oxygen consumption using the Seahorse XFe24 Extracellular Flux Analyzer (Agilent Technologies, Santa Clara, Calif.) over 120 minutes (9-minute intervals). Punches were labeled with a nuclear counterstain (DAPI) and nuclei were counted in each punch to normalize respirometry data. […]
Tissue preparation and extracellular flux assays for mitochondrial respiration were performed as described in Greiner et al. (2015). In brief, after pre-stripping the EDM, 3 mm diameter EDM punches were mounted in wells of a XF24 microplate (Agilent Technologies, Santa Clara, Calif.). After acclimation for one hour at 37° C. in non-buffered assay media, metabolic activity of the EDM samples was quantified using a commercial kit (XF Cell Mito Stress Test Kits; Agilent Technologies) on a Seahorse XFe24 extracellular flux analyzer (Agilent Technologies). Following extracellular flux analysis, tissues were labeled fluorescently using a 1:1000 Sytox Green nucleic acid stain in the microtiter plate (Life Technologies, Grand Island, N.Y.) and imaged on an Olympus IX-81 inverted microscope (Olympus America, Center Valley, Pa.) using a FITC filter. Cell counts were determined using Image J (https://imagej.nih.gov/ij/download.html) and used to compute the oxygen consumption rate per cell (OCR; pmole/min/cell). Raw OCR values were used to calculate several different key parameters of metabolic function per manufacturer's directions (Agilent Technologies), as in Aldrich et al. (2017). The parameters and calculations used in this study were the main outcome measures, including basal respiration, ATP-associated oxygen consumption, proton [H^+] leak, maximal respiration, spare respiratory capacity, non-mitochondrial respiration, and coupling efficiency as described in Schneider et al. and Goldstein et al. (2018).
Mitochondrial Respiration Assay: 3 mm punches of central and peripheral endothelium-Descemet membrane complex (EDM) were secured to the bottom of cell culture microplate wells or CECs were grown directly onto microplate.

[1] = 10 μM CoQ10 (ubiquinol), 5 days in Optisol GS, vs diluent-treated mate cornea, 13 or 14 paired corneas
[2] = 10 μM ubiquinol vs diluent-treated mate cornea, 5 days, n = 13
[3] = 10 μM ubiquinol, 5 days in Optisol-GS, n = 13
[4] = Example 13: 10 μM ubiquinol, 5 days in Optisol-GS, N=13, vs controls
[5] = palmitate-BSA treated tissues (100 μM), 5 days, n = 7

## ubiquinol
1 μM coQ10, among doses 0.5, 1, 5, 7.5 μM
  non-mitochondrial respiration: largest increase in non-mitochondrial respiration
1 μM coQ10, tissues in storage (compared with the 10 μM dose)
  mitochondrial spare respiratory capacity: did not show a bolstering of mitochondrial spare respiratory capacity function
10 μM CoQ10 (ubiquinol), 5 days in Optisol GS at 4° C., vs diluent-treated mate cornea, 13 or 14 paired corneas
  proton leak increased: 34%
[1]
  maximal respiration increased: 97%
  spare respiratory capacity increased: 133%
[2]
  ATP Production, Mean Difference: Ubiquinol-Control (95% CI): −0.0001 (−0.0033, 0.0032)
  Basal, Mean Ratio: Ubiquinol/Control (95% CI): Ratio: 1.12 (0.88, 1.43)
  Coupling Efficiency, Mean Difference: Ubiquinol-Control (95% CI): −0.0655 (−0.1550, 0.0240)
  Maximal Respiration, Mean Ratio: Ubiquinol/Control (95% CI): Ratio: 1.93 (1.31, 2.85)
  Non-mitochondrial Respiration, Median Difference: Ubiquinol-Control (95% CI): 0.000013^# (−0.00255, 0.00123)
  Proton Leak, Mean Ratio: Ubiquinol/Control (95% CI): Ratio: 1.80 (1.01, 3.21)
  Spare Respiratory Capacity, Mean Ratio: Ubiquinol/Control (95% CI): Ratio: 2.74 (1.61, 4.66)
[3]
  Coupling Efficiency, Mean (SD): 0.5303 (0.1141)
  ATP Production, Mean (SD): 0.0116 (0.0049)
  Maximal Respiration, Mean (SD): 0.0998 (0.0799)
  Non-mitochondrial Respiration, Median [IQR]: 0.00662
  Proton Leak, Mean (SD): 0.0091 (0.0049)
  Spare Respiratory Capacity, Mean (SD): 0.0781 (0.0734)
10 μM ubiquinol, 5 days in Optisol-GS, n = 13 matched tissues
  Basal, Mean (SD): 0.0202 (0.0087)
[4]
  maximal respiration increased: 93%
  proton leak increased: 80%
  spare respiratory capacity increased: 174%
palmitate-BSA treated tissues (100 μM), 5 days in Optisol-GS, n = 7 matched tissues
  Basal, Mean (SD): 0.0251 (0.0138)
[5]
  Coupling Efficiency, Mean (SD): 0.5376 (0.1891)
  ATP Production, Mean (SD): 0.0155 (0.0090)
  Maximal Respiration, Mean (SD): 0.1102 (0.0309)
  Non-mitochondrial Respiration, Median [IQR]: 0.00809
  Proton Leak, Mean (SD): 0.0106 (0.0075)
  Spare Respiratory Capacity, Mean (SD): 0.0833 (0.0212)
Ubiquinol supplemented vs non-supplemented CEC (FIG. 1)
  oxygen consumption rate (OCR) of CEC: High OCR; also recorded: increased oxygen consumption rate
